Source: a melting point compilation (Tetko et al.; mined from patent text by program, amines drawn as free bases though some values may be those of a salt)

SMILES | melting point [°C]
CN(CC(=O)O)[C@H]1CC[C@H](Nc2ncc3ncnc(Nc4ccc(F)c(Cl)c4)c3n2)CC1 | 220 to 228
COC(=O)C1C(=O)CC(=O)CC1C (stereo unspecified) | 122 to 123
CNc1cc(SCC(C)O)c(N)cc1[N+](=O)[O-] (stereo unspecified) | 152
COc1ccc(COc2cccc(C(=O)O)c2OCc2ccc(OC)cc2)cc1 | 129
Cc1ccc(S(=O)(=O)Nc2nc(-c3cccc([N+](=O)[O-])c3)cs2)cc1 | 187 to 189
CC(c1cccnn1)c1cccc(Cl)c1Cl (stereo unspecified) | 96 to 98
CCOC(=O)C1=C(C)NC(O)(c2ccc([N+](=O)[O-])cc2)C(C(=O)OCC)C1c1cccc([N+](=O)[O-])c1 (stereo unspecified) | 196 to 197
O=c1c(CCCc2ccoc2)cc2cccnc2n1-c1cccc([N+](=O)[O-])c1 | 185 to 186
CNC(=N)Nc1nnc(-c2ccccc2C(F)(F)F)s1 | 160 to 162
COc1cc(Nc2c(C#N)cnc3cc(/C=C/c4ccncc4)ccc23)c(Cl)cc1Cl | 218 to 219
CCOC(=O)c1cn(C2CC2)c2occc2c1=O | 200 to 201
CCCCCCCNC(=O)N(C)c1cccc(-c2ccc(C=C(C)C(=O)O)cc2)c1 | 79
Cc1cc(C)c(Nc2nc(C)ccc2S(=O)(=O)c2ccc(OCCCC#N)cc2)c(C)c1 | 160 to 162
CC(C)(C)c1cc(C(=O)OCCC(=O)Oc2ccc(Cl)c([N+](=O)[O-])c2)cc(C(C)(C)C)c1O | 106 to 108
COC(=O)c1ccc(CN2CCOc3ccc(NC(=O)CC4CCCC4)cc32)c(OC)c1 | 152 to 153
CC(=O)OCCOc1cc(-n2c(=O)cc(C(F)(F)F)n(C)c2=O)c(F)cc1Cl | 88 to 90
OCc1cnoc1-c1ccc(F)cc1 | 41 to 42
O=C(O)c1cncn1C(c1ccccc1)c1ccccc1 | 216
CCC(O)(CC)[C@@H]1C[C@@H]([C@H](CC2CCCCC2)NC(=O)OC(C)(C)C)OC1=O | 118 to 120
Cc1cc(NCCO)c([N+](=O)[O-])cc1O | 174
Cc1ccc(C)n1-c1ccc(Br)cn1 | 69
COC(=S)c1[nH]c2ccc(Cl)cc2c1-c1ccccc1 | 193 to 196
COCCOCCOCCOCCNS(=O)(=O)c1ccc(NC=C2C(=O)Nc3ccc4ncsc4c32)cc1 | 158 to 159
COc1ccc(-c2ccccc2NC(=N)N(C)C)cc1 | 130 to 131
c1cc(CN2CCCCC2)ccc1CN1CCCCC1 | 86 to 88
COc1ccc(-c2cc(=O)n(C)c(=O)n2C)cc1OC | 118 to 120

SMILES | melting point [°C]
CCC(O)(c1ccc(OCCN(C(C)C)C(C)C)cc1)c1ccccc1OC (stereo unspecified) | 46 to 47
O=c1c2ccccc2ncn1CCN1CCC(Nc2nc3ccccc3n2Cc2ccc(F)cc2)CC1 | 191
NC1=NC(c2cccc(-c3cccnc3F)c2)(c2cnn(CC(F)(F)F)c2)C2=NCCCN12 (stereo unspecified) | 106 to 116
COc1ccc(CSc2ccncc2C(=O)O)cc1 | 230
CSc1nnc(C2CCCCC2)c(=O)n1C | 84 to 88
CC(O)(c1ccccc1)c1cc(Oc2ccc(Cl)cc2)ccc1O (stereo unspecified) | 103 to 104
O=C1Cc2cc3c(cc2C(c2ccccc2Cl)N1)OCO3 (stereo unspecified) | 207 to 209
O=C1NCc2cc(C(=O)c3ccccc3)ccc2N1 | 265
COc1c(C2CCN(CCCCNC(=O)c3c(C)nc(-c4ccc(Cl)cc4)n3C)CC2)ccc2c1CCCC2 | 150
O=C1NC(CCN2CCC(C(=O)c3ccc(F)cc3)CC2)Nc2ccccc21 (stereo unspecified) | 153
CC(=O)C1=C(C)N=C(c2ccccc2)NC1c1cccc([N+](=O)[O-])c1 (stereo unspecified) | 154 to 155
C[C@H](NS(=O)(=O)c1ccc2c(Cl)cnc(Cl)c2c1)C(=O)OC(C)(C)C | 115 to 119
Clc1ccccc1-c1c(I)nc2ncnn2c1NC1CCCC1 | 150
CC1(C)CCC(C)(C)c2cc3c(cc21)CCc1c(-c2ccc(C(=O)O)cc2)csc1-3 | 261 to 262
CNS(=O)(=O)c1ccc(C)cc1C(=O)O | 140 to 141
COc1cccc(-c2noc(-c3ccccn3)n2)c1 | 90 to 94
OCCC=Cc1ccc(-c2ccccc2)cc1 | 142
CCC(=O)N1C(=O)c2cc(C)ccc2Oc2ncccc21 | 142 to 145
CC(C)Sc1cc(C(C)(C)C)c(O)c(C(C)(C)C)c1 | 80 to 82
NC(=O)NCc1ccc2c(c1)OCO2 | 183 to 184
CCN1c2ncccc2C(=NC#N)Nc2c(C)cc(C)nc21 | 230 to 233
O=[N+]([O-])c1ccc(CO)c(Cl)c1 | 62 to 64
CCC1CC2=CC(=O)CCC2C2CCC3(C)C(O)CCC3C12 (stereo unspecified) | 142 to 144
Cc1cc2c(c(Sc3ccc(Cl)cc3)n1)C(=O)N(CC1Cc3c(sc(N)c3C(=O)OC(C)(C)C)CO1)C2=O (stereo unspecified) | 118 to 119
C[C@@H]1N=C(c2ccccc2F)c2cc([N+](=O)[O-])ccc2N(C)C1=O | 95 to 110
Cn1cc(Oc2cc(Cl)cc(Cl)c2)c(=O)c(-c2cccc(C(F)(F)F)c2)c1 | 128 to 130

SMILES | melting point [°C]
CCOC(=O)c1csc(-c2ccc3c(=O)n(CC(C)C)c(CNC(=O)OC(C)(C)C)c(-c4ccccc4)c3c2)n1 | 170 to 171
CCOCc1nc2c(N)nc3ccccc3c2n1N(C)C | 213 to 215
COc1cc(OC)cc(C(=CC#N)c2ccc3c(c2)nc(C)n3C)c1 | 199 to 201
C=CCOc1ccc(C2=NNC(=O)CC2)cc1 | 130 to 132
O=C(O)c1cc(N=Cc2ccccc2)ccc1O | 213 to 215
CC(C)=CCC/C(C)=C/CC/C(C)=C/CC/C(C)=C/CON1C(=O)c2ccccc2C1=O | 40 to 41
COc1cc2c(cc1[N+](=O)[O-])-c1c(-c3cccs3)c3c(n1CC2)C(=O)N(C(C)(C)C)CC3 | 226 to 227
COc1cc(C(C)=O)ccc1OC/C=C/CBr | 71 to 72
CCCCCCC(C(=O)O)n1cnc(NC(=O)C2(O)c3ccccc3-c3ccccc32)c1 (stereo unspecified) | 128
O=C(Nc1cccc2ccccc12)N(CCCN1CCC(Cc2ccccc2)CC1)c1ccccc1 | 124 to 127
O=C(O)C=C1SC(Nc2c(Cl)cccc2Cl)=NC1=O | > 230
O=C1C(=O)c2ccccc2C2=C1SCC1(CCN(Cc3ccccc3F)CC1)O2 | 118 to 122
CCOC(=O)Cc1ncnc2c([N+](=O)[O-])cccc12 | 162 to 164
Cc1ccc(C(=O)NC#N)cc1 | 140 to 142
CCN1CCNC(=O)c2ccc(Nc3ncc(Cl)c(Nc4ccccc4OCCN4CCOCC4)n3)cc21 | 223 to 225
COc1ccccc1C(=O)C=Cc1ccncc1 | 70
CC1(c2cc3ccccc3[nH]2)CCCCC1 | 50
CCCn1c(=O)c2c(nc(/C=C/c3ccc(OC)c(OC)c3)n2C)n(CCC)c1=O | 127
COc1ccc(CNC(=O)c2ccccc2)cc1OC | 101 to 102
O=C1Nc2ccc(CN3C(=O)CSC3=O)c(F)c2C1=Cc1cc(CN2CCOCC2)c[nH]1 | 246 to 248
CCCCCCOc1ccc(C(=O)NCCN(O)C(N)=O)cc1 | 148 to 151
COc1nc2ccccc2nc1NC(=S)N1CCN(c2cc(C)cc(C)c2)CC1 | 193 to 195
O=C(O)COc1nnc(C(F)(F)F)s1 | 58
COCOc1ccc2c(c1)OC(C)(C)CC2=O | 77 to 79
O=[N+]([O-])c1ccc(Oc2ccc(-n3cncn3)cc2)cc1 | 131 to 132
C=C(F)c1cc(O)cc2nc(-c3ccc(O)c(F)c3)oc12 | 213 to 214

SMILES | melting point [°C]
CCc1cc2c(C3=NNC(=O)CC3C)cc(Cl)cn2n1 (stereo unspecified) | 172 to 174
COc1c(O)ccc(C=O)c1[N+](=O)[O-] | 136 to 137
O=C(O)CN1CCC(=C2c3ccccc3COc3ccccc32)CC1 | 132 to 135
CC(C)(C)OC(=O)[C@H](CCSCc1cn(C(c2ccccc2)(c2ccccc2)c2ccccc2)cn1)NC(=O)OCc1ccccc1 | 183 to 185
CCCSc1sc(C(N)=O)c2c1-c1nc(-c3ccccc3)sc1CC2 | 203 to 204
COc1cc2c(N3CCN(C(=O)Nc4ccc(Oc5ccccc5)cc4)CC3)ncnc2c(OC)c1OC | 83 to 84
CC1(C)NC(=O)OC12CCN(C(=O)OCc1ccccc1)CC2 | 208 to 209
CCOC(=O)c1oc2ccc(Cl)cc2c1CN(C)CC(OC)OC | 58 to 60
CNS(=O)(=O)c1sc(C)cc1CC(=O)O | 138
O=C1C(=O)c2ccccc2C2=C1SCC1(CCN(Cc3ccc(-c4cn[nH]c4)cc3)CC1)O2 | 190 to 192
CN1C(=O)OC[C@H]1Cc1ccccc1 | 75 to 77
CC(=O)n1nc(-c2cccc([N+](=O)[O-])c2)n2nc(C)cc12 | 207 to 210
COC(=O)c1ccc(CC#N)cc1S(=O)(=O)NC(C)(C)C | 86 to 88
CCC(=O)C(=Cc1cc(O)c(O)c(C#N)c1)C(=O)CC | 165 to 173
CCN(CC=C(Cl)Cl)C(=O)Nc1ccc(Cl)c(Cl)c1 | 105 to 106
COc1cc(OC)cc(N2CCN(C(=O)Nc3nc4ccccc4nc3OC)CC2)c1 | 140 to 141
CCOC(=O)C(C)(C)OC1(CCCNC(=O)c2cc(Cl)ccc2OC)C=CC(c2ccccc2)=CC1 (stereo unspecified) | < 20
CC1(C(=O)O)Cc2ccccc2NC1=O (single isomer, unassigned; (+)) | 139 to 141
COC1=C(OC)C(=O)C2=C(CC(CCCCOc3ccc(C(=O)N4CCC(c5ccccc5)CC4)cc3)C2)C1=O | 90 to 94
NS(=O)(=O)c1ccc(-n2nc(CCCNC(=O)Nc3cccc(C(F)(F)F)c3)cc2-c2ccccc2)cc1 | 176
COc1ccc(CCNC(=O)C=Cc2cccs2)cc1S(=O)(=O)NC(=S)NC(C)C | 96
CN1CC(C)(C)Oc2c(C(=O)NC3CN4CCC3CC4)cccc21 (stereo unspecified) | 114 to 116
Cc1ccccc1Nc1nc(N(C)c2ccccc2)c2sccc2n1 | 198 to 200
